Measurements taken from the C3SDB collision cross section collection.

Columns and labels:
[1] = instrument: DT, single field, calibrated with Agilent tune mix (Agilent)
[2] = instrument: DT, stepped-field

| SMILES | collision cross section (N2) ([1]; [M+H]+) | collision cross section (N2) ([1]; [M-H]-) | collision cross section (N2) ([2]; [M+H]+) | collision cross section (N2) ([2]; [M+Na]+) |
| --- | --- | --- | --- | --- |
| Cn1c(=O)c2[nH]cnc2n(C)c1=O [Theophylline] | 137.6 Å² | 130.14 Å² | 143.06 Å² | 149.63 Å² |
| NC(=O)c1cccnc1 [Nicotinamide] | 125.3 Å² |  | 129.32 Å² | 137.3 Å² |
| CC(=O)NC1[C@H](OC2[C@@H](O)[C@H](OC([C@H](O)CO)[C@@H](O)[C@@H](O)C=O)O[C@H](COC3O[C@H](CO)[C@@H](O[C@@H]4O[C@H](CO)[C@H](O)[C@H](O)[C@H]4O)[C@H](O)[C@H]3NC(C)=O)[C@H]2O)O[C@H](CO)[C@@H](O)[C@@H]1OC1O[C@H](CO)[C@H](O)[C@H](O)[C@H]1O (some centres not stated) [Lacto-N-hexaose] |  |  |  | 301.6 Å² |
| Nc1c(Cl)c(Cl)nc(C(=O)O)c1Cl [Picloram] |  |  | 142.83 Å² | 156.37 Å² |
| CC(=O)Oc1ccccc1C(=O)O [Acetylsalicylic Acid] |  |  |  | 146.8 Å² |
| CCCCCCCCCCCCCCCCCCCC(=O)O [Arachidic Acid] |  |  |  | 199.97 Å² |
| C[N+](C)(C)CC(=O)[O-] [Betaine] | 121.4 Å² |  | 121.6 Å² | 135.56 Å² |
| CCCCCCCCCCCCCC(=O)OC[C@@H](O)COP(=O)([O-])OCC[N+](C)(C)C [LPC 14:0] |  |  | 222 Å² | 225.77 Å² |
| Cn1cnc2c1c(=O)[nH]c(=O)n2C [Theobromine] |  | 135.25 Å² | 134.37 Å² |  |
| C[C@]12CCC(=O)C=C1CC[C@@H]1[C@@H]2[C@@H](O)C[C@]2(C=O)[C@@H](C(=O)CO)CC[C@@H]12 [Aldosterone] | 187.7 Å² | 181.09 Å² | 196.05 Å² | 204.09 Å² |
| O=C(O)/C=C(\CC(=O)O)C(=O)O [Trans-Aconitic Acid] |  |  | 153.02 Å² | 149.13 Å² |
| NC(N)=NCCCC(=O)O [4-Guanidinobutanoic Acid] |  |  | 132.8 Å² |  |
| CCCCCCCCCCCCCCCCCC(=O)OC[C@@H](O)COP(=O)([O-])OCC[N+](C)(C)C [18:0 Lyso PC] |  |  |  | 243.07 Å² |
| CCCCCCCCCCCCCCCCCCCCCCCC(=O)OC[C@@H](O)COP(=O)([O-])OCC[N+](C)(C)C [LPC(24:0)] |  |  |  | 262.43 Å² |
| NC(N)=NCC(=O)O [Guanidinoacetic Acid] |  |  | 126.88 Å² |  |
| C/C=C(\C)C(=O)NCC(=O)O [Tiglyl Glycine] |  |  |  | 146.68 Å² |
| CN(CC(=O)O)/C(N)=N/P(=O)(O)O [Phosphocreatine] | 144.4 Å² |  | 153.77 Å² |  |

| SMILES | collision cross section (N2) ([1]; [M+H]+) | collision cross section (N2) ([1]; [M-H]-) | collision cross section (N2) ([2]; [M+H]+) | collision cross section (N2) ([2]; [M+Na]+) |
| --- | --- | --- | --- | --- |
| O=C[C@H](O)[C@H](O)COP(=O)(O)O [D-Erythrose 4-Phosphate] |  |  |  | 153.89 Å² |
| O=c1[nH]cc(CO)c(=O)[nH]1 [5-Hydroxymethyluracil] |  | 119.21 Å² |  | 142.06 Å² |
| O=C(O)CC(C(=O)O)C(O)C(=O)O (configuration not stated) [Isocitric Acid] |  |  |  | 146.78 Å² |
| O=C(CO)[C@@H](O)[C@H](O)COP(=O)(O)O [D-Xylulose 5-Phosphate] |  |  |  | 151.4 Å² |
| O=C(O)/C=C(/CC(=O)O)C(=O)O [Cis-Aconitic Acid] |  |  | 152.21 Å² | 146.78 Å² |
| CCCCCCCCCCCCCCCCCCCCCCCC(=O)O [Lignoceric Acid] |  |  |  | 216.86 Å² |
| C=CCc1cc(OC)c2c(c1)OCO2 [Myristicin] |  |  | 141.69 Å² |  |
| NCCc1ccc(O)c(O)c1 [Dopamine] |  | 129.51 Å² | 125.24 Å² |  |
| O=P(O)(O)OP(=O)(O)O [Pyrophosphoric Acid] |  |  |  | 145.58 Å² |
| O=C(O)CNCP(=O)(O)O [Glyphosate] |  |  |  | 141.17 Å² |
| Cn1c(=O)[nH]c2ncn(C)c2c1=O [Paraxanthine] |  |  | 135.63 Å² |  |
| CCCCCC(=O)/C=C/C=C/CCCCCCCC(=O)O [13-OxoODE] |  |  | 179.4 Å² | 193.37 Å² |
| CCCCC[C@H](O)/C=C/[C@@H]1[C@H]2C/C(=C/CCCC(=O)O)O[C@H]2C[C@H]1O [Prostaglandin I2] | 198.6 Å² | 186.84 Å² | 201.3 Å² | 196.67 Å² |
| O=C(O)CC(=O)C(=O)O [Oxaloacetic Acid] |  |  | 139.45 Å² |  |
| OC[C@@H](O)[C@H](O)[C@H](O)[C@@H](O)CO [Galactitol] |  |  |  | 145.91 Å² |
| O=C1c2ccccc2C(=O)c2ccccc21 [Anthraquinone] |  |  | 141.89 Å² |  |
| Nc1ncnc2c1ncn2[C@H]1C[C@H](O)[C@@H](CO)O1 [2'-Deoxyadenosine] |  |  | 162.73 Å² | 166.67 Å² |
